Series [1] in a line: Caco-2 Permeability Assay. The class given is in vitro ADME, human. The note with it: human. A digest of the protocol:
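Caco-2 monolayers cultured 21 days (TEER >600 […]); test article at 10 μM in HBSS/HEPES pH 7.4 transport medium, dosed apical or basolateral, ±Pgp inhibitor. Incubated 90 min at 37 °C; both compartments quantified by LC-MS/MS. Papp (A→B, B→A), efflux ratio and % recovery calculated.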
(In general: Caco-2 monolayers are a common model of the intestinal barrier.)

Series [2] can be described thus: Stability in Simulated Gastric Fluid (SGF). Type of series: in vitro ADME. The arrangement: key: % parent compound remaining relative to 0-minute sample. In a few lines:
(§1)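 Compound at 2 μg/mL final was incubated at 37° C with orbital shaking in SGF containing pepsin (pH 1.2) or SIF containing pancreatin (pH 6.8), sampled from 0 to 60 minutes. Parent remaining was measured by LC-MS/MS relative to the 0-minute sample; half-life came from ln(% remaining) versus time when enough points existed.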

The nature of series [3]: Stability in Simulated Intestinal Fluid (SIF). Type of series: in vitro ADME. The arrangement: key: % parent compound remaining relative to 0-minute sample. A digest of the protocol:
as §1

Series [4] is described as follows: Plasma Stability. Type of series: in vitro ADME, human. In a few lines:
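Compounds incubated at 1 μM in fresh human plasma for 1 hour at 37° C, then protein-precipitated with acetonitrile/formic acid containing internal standard. Remaining parent measured by LC-MS/MS in triplicate, expressed as percent of control remaining.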

Setting [5] is: bare number, unit or time not given.
[6] abbreviates: Caco-2, pH 7.4, Caco-2 monolayer.
[7] abbreviates: simulated gastric fluid, remaining at 1 h.
The mark [8] stands for this setting: simulated intestinal fluid, remaining at 1 h.

The values below come from patent US20240067651A1 (Biohaven Therapeutics Ltd., priority 2019, published 2024).

Consider `CC(C)OCCn1c(=S)[nH]c(=O)c2c1ccn2COC(=O)CCCCOC(=O)[C@H](N)Cc1ccccc1.O=C(O)C(F)(F)F` [Example 341, trifluoroacetic acid {4-oxo-1-[2-(propan-2-yloxy)ethyl]-2-sulfanylidene-1H,2H,3H,4H,5H-pyrrolo[3,2-d]pyrimidin-5-yl}methyl 5-{[(2R)-2-amino-3-phenylpropanoyl]oxy}pentanoate], for which the Papp at 90 min, 10 µM in series [1] (Caco-2, pH 7.4) is 0.259 ×10⁻⁶ cm/s. In addition, the SGF in series [2] (setting [5]) is 99. The SIF in series [3] (setting [5]) is 33. Further, the “human Plasma stability” value in series [4] (% remaining @ 1 h) is on record as 1% remaining.
On to `CC(C)C[C@H](N)C(=O)OCCCCC(=O)OCn1ccc2c1c(=O)[nH]c(=S)n2CCOC(C)C.O=C(O)C(F)(F)F` [Example 345, trifluoroacetic acid 5-oxo-5-({4-oxo-1-[2-(propan-2-yloxy)ethyl]-2-sulfanylidene-1H,2H,3H,4H,5H-pyrrolo[3,2-d]pyrimidin-5-yl}methoxy)pentyl (2S)-2-amino-4-methylpentanoate], for which, in series [1] (Caco-2, pH 7.4), the Papp at 90 min, 10 µM was < 0.0662 ×10⁻⁶ cm/s. Besides, the SGF in series [2] (% remaining @ 1 h) is 71% remaining. In addition, in series [3] (% remaining @ 1 h), the SIF was 2% remaining at. Further, the “human Plasma stability” value in series [4] (% remaining @ 1 h) is 77% remaining.
The like results for `CC(C)C[C@@H](NC(=O)OC(C)(C)C)C(=O)OCCCCC(=O)OCn1ccc2c1c(=O)[nH]c(=S)n2CCOC(C)C` [Example 347, 5-oxo-5-({4-oxo-1-[2-(propan-2-yloxy)ethyl]-2-sulfanylidene-1H,2H,3H,4H,5H-pyrrolo[3,2-d]pyrimidin-5-yl}methoxy)pentyl (2R)-2-{[(tert-butoxy)carbonyl]amino}-4-methylpentanoate] were, in that order, 1.06 ×10⁻⁶ cm/s, 98% remaining, 4% remaining and 16% remaining.
In the case of `CC(C)C[C@@H](N)C(=O)OCCCCC(=O)OCn1ccc2c1c(=O)[nH]c(=S)n2CCOC(C)C.O=C(O)C(F)(F)F` [Example 350, trifluoroacetic acid 5-oxo-5-({4-oxo-1-[2-(propan-2-yloxy)ethyl]-2-sulfanylidene-1H, 2H,3H,4H,5H-pyrrolo[3,2-d]pyrimidin-5-yl}methoxy)pentyl (2R)-2-amino-4-methylpentanoate], the apparent permeability coefficient (Papp) at 90 min, 10 µM in series [1] (setting [6]) worked out at 0.0782 ×10⁻⁶ cm/s. Moreover, the SGF in series [2] (setting [7]) was 29% remaining. The SIF in series [3] (setting [8]) is reported as 52% remaining. In series [4] (human plasma, remaining at 1 h), the “human Plasma stability” value came out at 44% remaining.
Regarding `CSCC[C@H](NC(=O)OC(C)(C)C)C(=O)OCCCCC(=O)OCn1ccc2c1c(=O)[nH]c(=S)n2CCOC(C)C` [Example 352, {4-oxo-1-[2-(propan-2-yloxy)ethyl]-2-sulfanylidene-1H,2H,3H,4H,5H-pyrrolo[3,2-d]pyrimidin-5-yl}methyl 5-{[(2S)-2-{[(tert-butoxy)carbonyl]amino}-4-(methylsulfanyl)butanoyl]oxy}pentanoate], the Papp at 90 min, 10 µM in series [1] (setting [6]) stood at 2.03 ×10⁻⁶ cm/s. In addition, the SGF in series [2] (setting [7]) is recorded as 92% remaining. Besides, in series [3] (setting [8]), the SIF is listed as 9% remaining. For the same compound, in series [4] (human plasma, remaining at 1 h), the “human Plasma stability” value came to 9% remaining.
`CSCC[C@H](N)C(=O)OCCCCC(=O)OCn1ccc2c1c(=O)[nH]c(=S)n2CCOC(C)C.O=C(O)C(F)(F)F` [Example 353, trifluoroacetic acid {4-oxo-1-[2-(propan-2-yloxy)ethyl]-2-sulfanylidene-1H,2H,3H,4H,5H-pyrrolo[3,2-d]pyrimidin-5-yl}methyl 5-{[(2S)-2-amino-4-(methylsulfanyl)butanoyl]oxy}pentanoate] showed a Papp at 90 min, 10 µM in series [1] (setting [6]) of 0.549 ×10⁻⁶ cm/s. For the same compound, the SGF in series [2] (setting [7]) is recorded as 33% remaining. The SIF in series [3] (setting [8]) is recorded as 66% remaining. The “human Plasma stability” value in series [4] (human plasma, remaining at 1 h) is reported as 3% remaining.
The like results for `CC(C)OCCn1c(=S)[nH]c(=O)c2c1ccn2COC(=O)CCCOC(=O)[C@H](NC(=O)OC(C)(C)C)C(C)C` [Example 355, 4-oxo-4-({4-oxo-1-[2-(propan-2-yloxy)ethyl]-2-sulfanylidene-1H,2H,3H,4H,5H-pyrrolo[3,2-d]pyrimidin-5-yl}methoxy)butyl (2R)-2-{[(tert-butoxy)carbonyl]amino}-3-methylbutanoate] were, in that order, 2.16 ×10⁻⁶ cm/s, 99% remaining, 100% remaining and 43% remaining.
As to `CC(C)OCCn1c(=S)[nH]c(=O)c2c1ccn2COC(=O)CCCOC(=O)[C@H](N)C(C)C` [Example 356, trifluoroacetic acid 4-oxo-4-({4-oxo-1-[2-(propan-2-yloxy)ethyl]-2-sulfanylidene-1H,2H,3H,4H,5H-pyrrolo[3,2-d]pyrimidin-5-yl}methoxy)butyl (2R)-2-amino-3-methylbutanoate], the Papp at 90 min, 10 µM in series [1] (setting [6]) was found to be 11.3 ×10⁻⁶ cm/s. Besides, the SGF in series [2] (setting [7]) is recorded as 99% remaining. For the same compound, in series [3] (setting [8]), the SIF is recorded as 25% remaining. In addition, in series [4] (human plasma, remaining at 1 h), the “human Plasma stability” value was 5% remaining.
As to `CC(C)OCCn1c(SCOC(=O)CCCOC(=O)[C@H](N)C(C)C)nc(=O)c2c1ccn2COC(=O)CCCOC(=O)[C@H](N)C(C)C.O=C(O)C(F)(F)F.O=C(O)C(F)(F)F` [Example 358, bis(trifluoroacetic acid) 4-(((5-(((4-((D-valyl)oxy)butanoyl)oxy)methyl)-1-(2-isopropoxyethyl)-4-oxo-4,5-dihydro-1H-pyrrolo[3,2-d]pyrimidin-2-yl)thio)methoxy)-4-oxobutyl D-valinate], the Papp at 90 min, 10 µM in series [1] (setting [6]) was determined as 1.78 ×10⁻⁶ cm/s. Besides, the SGF in series [2] (setting [7]) is given as 80% remaining. For the same compound, in series [3] (simulated intestinal fluid, bare number, unit or time not given), the SIF is 48. Also, the “human Plasma stability” value in series [4] (human plasma, remaining at 1 h) is listed as 12% remaining.
Turning to `CC(C)OCCn1c(=S)[nH]c(=O)c2c1ccn2COC(=O)CCCOC(=O)[C@@H](Cc1ccccc1)NC(=O)OC(C)(C)C` [Example 361, {4-oxo-1-[2-(propan-2-yloxy)ethyl]-2-sulfanylidene-1H,2H,3H,4H,5H-pyrrolo[3,2-d]pyrimidin-5-yl}methyl 4-{[(2R)-2-{[(tert-butoxy)carbonyl]amino}-3-phenylpropanoyl]oxy}butanoate], the Papp at 90 min, 10 µM in series [1] (setting [6]) is < 0.31 ×10⁻⁶ cm/s. Besides, in series [2] (setting [7]), the SGF is 95% remaining. In addition, the SIF in series [3] (setting [8]) was 9% remaining. In addition, the “human Plasma stability” value in series [4] (human plasma, remaining at 1 h) turned out to be 8% remaining.
For `CC(C)OCCn1c(=S)[nH]c(=O)c2c1ccn2COC(=O)CCCOC(=O)[C@H](N)Cc1ccccc1.O=C(O)C(F)(F)F` [Example 362, trifluoroacetic acid {4-oxo-1-[2-(propan-2-yloxy)ethyl]-2-sulfanylidene-1H,2H,3H,4H,5H-pyrrolo[3,2-d]pyrimidin-5-yl}methyl 4-{[(2R)-2-amino-3-phenylpropanoyl]oxy}butanoate], the Papp at 90 min, 10 µM in series [1] (setting [6]) was 5.12 ×10⁻⁶ cm/s. In series [2] (setting [7]), the SGF is reported as 90% remaining. Also, the SIF in series [3] (setting [8]) was 2% remaining. For the same compound, the “human Plasma stability” value in series [4] (human plasma, remaining at 1 h) is 3% remaining.
In turn, `CC(C)OCCn1c(SCOC(=O)CCCOC(=O)[C@@H](Cc2ccccc2)NC(=O)OC(C)(C)C)nc(=O)c2c1ccn2COC(=O)CCCOC(=O)[C@@H](Cc1ccccc1)NC(=O)OC(C)(C)C` [Example 363, [(5-{[(4-{[(2R)-2-{[(tert-butoxy)carbonyl]amino}-3-phenylpropanoyl]oxy}butanoyl)oxy]methyl}-4-oxo-1-[2-(propan-2-yloxy)ethyl]-1H,4H,5H-pyrrolo[3,2-d]pyrimidin-2-yl)sulfanyl]methyl 4-{[(2R)-2-{[(tert-butoxy)carbonyl]amino}-3-phenylpropanoyl]oxy}butanoate] came in with a Papp at 90 min, 10 µM in series [1] (setting [6]) of 1.63 ×10⁻⁶ cm/s. For the same compound, the SGF in series [2] (setting [7]) is 97% remaining. Besides, the SIF in series [3] (setting [8]) is recorded as 18% remaining. Further, the “human Plasma stability” value in series [4] (human plasma, remaining at 1 h) stood at 42% remaining.
For `CC(C)OCCn1c(SCOC(=O)CCCOC(=O)[C@H](N)Cc2ccccc2)nc(=O)c2c1ccn2COC(=O)CCCOC(=O)[C@H](N)Cc1ccccc1.O=C(O)C(F)(F)F.O=C(O)C(F)(F)F` [Example 364, bis(trifluoroacetic acid) [(5-{[(4-{[(2R)-2-amino-3-phenylpropanoyl]oxy}butanoyl)oxy]methyl}-4-oxo-1-[2-(propan-2-yloxy)ethyl]-1H,4H,5H-pyrrolo[3,2-d]pyrimidin-2-yl)sulfanyl]methyl 4-{[(2R)-2-amino-3-phenylpropanoyl]oxy}butanoate], in that order: 0.277 ×10⁻⁶ cm/s, 47% remaining, 1% remaining and 31% remaining.
For `CC(C)OCCn1c(=S)n(COC(=O)CCCOC(=O)[C@@H](Cc2ccccc2)NC(=O)OC(C)(C)C)c(=O)c2c1ccn2COC(=O)CCCOC(=O)[C@@H](Cc1ccccc1)NC(=O)OC(C)(C)C` [Example 365, (3-{[(4-{[(2R)-2-{[(tert-butoxy)carbonyl]amino}-3-phenylpropanoyl]oxy}butanoyl)oxy]methyl}-4-oxo-1-[2-(propan-2-yloxy)ethyl]-2-sulfanylidene-1H,2H,3H,4H,5H-pyrrolo[3,2-d]pyrimidin-5-yl)methyl 4-{[(2R)-2-{[(tert-butoxy)carbonyl]amino}-3-phenylpropanoyl]oxy}butanoate], in that order: < 0.263 ×10⁻⁶ cm/s, 85% remaining, 5% remaining and 11% remaining.

One may read the Papp as a coefficient for how fast a substance crosses the barrier.
